Data as given in patent publication US10603369B2, “Combination vaccines with lower doses of antigen and/or adjuvant” (GlaxoSmithKline Biologicals SA, priority 2011, dated 2020).
In brackets after ≈: the same amount, converted by molar mass.

Columns and labels:
[1] = Adsorption of TLR agonist to aluminium hydroxide adjuvant; format: physicochemical
physchem = conditions: water

adsorption to aluminium hydroxide [1]: adsorbs well
solubility (physchem): ~4000 µg/mL (≈ 6.78 mM)
SMILES: Cc1ccc2c(c1)nc(N)c1ncc(CCc3ccc(OCCOCCOCCC(F)(F)P(=O)(O)O)cc3C)cc12 [compound T]
